Patent publication US7713971B2, “1,2,4-triazine derivatives, preparation and use thereof in human therapy” (Pierre Fabre Medicament, priority 2005, dated 2010)
Where two headings read alike, the source gives them in different places.

Assays:
human PPARγ = target: T1, human PPARγ (Homo sapiens, UniProt P37231); assay: Reporter gene transactivation, hPPAR-GAL4 gamma; type: cell-based; conditions: transfected Cos-7 cells, Gal-4 luciferase reporter, 24 hours treatment
T1 construct: expressed in transfected cells; host or cells: Cos-7 cells (ATCC, CRL-1651)
T1 sequence (P37231 238-503 limits assumed): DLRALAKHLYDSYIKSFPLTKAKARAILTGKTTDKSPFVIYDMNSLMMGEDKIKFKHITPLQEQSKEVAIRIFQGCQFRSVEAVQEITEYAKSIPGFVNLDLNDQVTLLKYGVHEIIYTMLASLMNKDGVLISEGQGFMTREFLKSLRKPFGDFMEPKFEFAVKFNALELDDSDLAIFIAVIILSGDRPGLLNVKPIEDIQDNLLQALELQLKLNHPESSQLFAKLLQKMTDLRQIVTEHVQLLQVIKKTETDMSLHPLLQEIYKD

[1] = tested on: insulin-resistant male rat (Ico: ZUCKER-fa/fa); assay: Normalization of metabolic parameters (cholesterol, plasma triglycerides) in insulin-resistant rat; type: in vivo; conditions: oral route, once per day for four days, Zucker fa/fa rat unfed 16-18 hours; for change in vivo at 10 mg/kg / change in vivo at 2.5 mg/kg: 96 h
Experimental: Normalization of metabolic parameters (cholesterol, plasma triglycerides) in an insulin-resistant male rat (Ico: ZUCKER-fa/fa), unfed for 16-18 hours, after treatment by oral route, once per day for four days, with the compounds to be evaluated or their administration vehicle.
These metabolic parameters are measured by spectrophotometry at the beginning and the end of each animal's treatment.

human PPARα = target: T2, human PPARα (Homo sapiens, UniProt Q07869); assay: Reporter gene transactivation, hPPAR-GAL4 alpha; type: cell-based; conditions: transfected Cos-7 cells, Gal-4 luciferase reporter, 24 hours treatment
T2 construct: expressed in transfected cells; host or cells: Cos-7 cells (ATCC, CRL-1651)
T2 sequence (Q07869 239-466 limits assumed): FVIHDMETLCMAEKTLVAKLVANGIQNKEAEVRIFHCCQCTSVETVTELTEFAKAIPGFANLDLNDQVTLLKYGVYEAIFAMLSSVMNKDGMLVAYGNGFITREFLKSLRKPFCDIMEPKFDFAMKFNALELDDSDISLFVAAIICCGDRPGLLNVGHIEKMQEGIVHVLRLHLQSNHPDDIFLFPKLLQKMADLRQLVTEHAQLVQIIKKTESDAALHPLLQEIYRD

[2] = at 10 mg/kg, read-out: Plasma cholesterol
[3] = at 2.5 mg/kg, read-out: Plasma cholesterol
[4] = at 2.5 mg/kg, read-out: Plasma triglycerides
[5] = at 10 mg/kg, read-out: Plasma triglycerides

| Structure (SMILES) | EC50 (human PPARγ) | change in vivo at 10 mg/kg [1, 2] | Plasma triglycerides ([1]; at 10 mg/kg) | EC50 (human PPARα) | change in vivo at 2.5 mg/kg [1, 3] | change in vivo at 2.5 mg/kg [1, 4] | change in vivo at 10 mg/kg [1, 5] | Plasma triglycerides ([1]; at 2.5 mg/kg) |
| --- | --- | --- | --- | --- | --- | --- | --- | --- |
| CCCCCCCn1nc(NCCCCc2cccc(OC(C)(C)C(=O)OCC)c2)c(=O)n(CCCC(F)(F)F)c1=O [Example 82, Ethyl 2-(3-{4-[2-heptyl-3,5-dioxo-4-(4,4,4-trifluoro-butyl)-2,3,4,5-tetrahydro-[1,2,4]triazin-6-ylamino]-butyl}-phenoxy)-2-methyl-propionate] | 0.1 to 0.3 µM | -13% | active at 10 mg/kg | ~10 nM | – | – | – | – |
| CCOC(=O)C(C)(C)Oc1cccc(CCCCCNc2nn(CCCC(F)(F)F)c(=O)n(CCCC(F)(F)F)c2=O)c1 [Example 92, Ethyl 2-(3-{5-[3,5-dioxo-2,4-bis-(4,4,4-trifluoro-butyl)-2,3,4,5-tetrahydro-[1,2,4]triazin-6-ylamino]-pentyl}-phenoxy)-2-methyl-propionate] | 3 to 10 µM | -18% | inactive at 10 | 3 to 10 nM | – | – | – | – |
| CCCCCCCn1nc(NCCc2ccc(SC(C)(C)C(=O)O)cc2)c(=O)n(CCCC)c1=O [Example 121, 2-{4-[2-(4-Butyl-2-heptyl-3,5-dioxo-2,3,4,5-tetrahydro-[1,2,4]triazin-6-ylamino)-ethyl]-phenylsulfanyl}-2-methyl-propionic Acid] | 1 to 3 µM | – | – | 30 to 100 nM | -7% | -24% | – | – |
| CCOC(=O)C(C)(C)Oc1cccc(CCCCNc2nn(CCCC(F)(F)F)c(=O)n(C)c2=O)c1 [Example 74, Ethyl 2-methyl-2-(3-{4-[4-methyl-3,5-dioxo-2-(4,4,4-trifluoro-butyl)-2,3,4,5-tetrahydro-[1,2,4]triazin-6-ylamino]-butyl}-phenoxy)-propionate] | 3 to 10 µM | -29% | – | ~1000 nM | -18% | – | -26% | inactive at 2.5 |
| CCCCCCCn1c(=O)c(NCCc2ccc(SC(C)(C)C(=O)O)cc2)nn(CCCC(F)(F)F)c1=O [Example 123, 2-(4-{2-[4-Heptyl-3,5-dioxo-2-(4,4,4-trifluoro-butyl)-2,3,4,5-tetrahydro-[1,2,4]triazin-6-ylamino]-ethyl}-phenylsulfanyl)-2-methyl-propionic Acid] | ~10 µM | -14% | – | 100 to 300 nM | -8% | -6% | -20% | – |
| CCOC(=O)C(C)(C)Oc1cccc(CCCCCOc2nn(C)c(=O)n(CCCC(F)(F)F)c2=O)c1 [Example 16, Ethyl 2-methyl-2-(3-{5-[2-methyl-3,5-dioxo-4-(4,4,4-trifluoro-butyl)-2,3,4,5-tetrahydro-[1,2,4]triazin-6-yloxy]-pentyl}-phenoxy)-propionate] | 3 to 10 µM | -25% | – | ~100 nM | -14% | – | -15% | inactive at 2.5 |
| CCCCn1c(=O)c(OCCCCCc2cccc(OC(C)(C)C(=O)OCC)c2)nn(C)c1=O [Example 11, Ethyl 2-{3-[5-(4-butyl-2-methyl-3,5-dioxo-2,3,4,5-tetrahydro-[1,2,4]triazin-6-yloxy)-pentyl]-phenoxy}-2-methyl-propionate] | 1 to 3 µM | -25% | – | 300 to 1000 nM | -25% | – | -37% | inactive at 2.5 |
| CCCCCCCn1nc(NCCCCc2cccc(OC(C)(C)C(=O)OCC)c2)c(=O)n(C)c1=O [Example 75, Ethyl 2-{3-[4-(2-heptyl-4-methyl-3,5-dioxo-2,3,4,5-tetrahydro-[1,2,4]triazin-6-ylamino)-butyl]-phenoxy}-2-methyl-propionate] | 3 to 10 µM | -13% | active at 10 | 3000 to 10000 nM | -19% | – | – | – |
| CCOC(=O)C(C)(C)Oc1cccc(CCCNc2nn(C)c(=O)n(CCCC(F)(F)F)c2=O)c1 [Example 65, Ethyl 2-methyl-2-(3-{3-[2-methyl-3,5-dioxo-4-(4,4,4-trifluoro-butyl)-2,3,4,5-tetrahydro-[1,2,4]triazin-6-ylamino]-propyl}-phenoxy)-propionate] | > 10 µM | -23% | – | 100 to 300 nM | -13% | – | -13% | inactive at 2.5 |
| CCCCCCCn1nc(NCCCOc2ccc(OC(C)(C)C(=O)OCC)cc2)c(=O)n(C)c1=O [Example 45, Ethyl 2-{4-[3-(2-heptyl-4-methyl-3,5-dioxo-2,3,4,5-tetrahydro-[1,2,4]triazin-6-ylamino)-propoxy]-phenoxy}-2-methyl-propionate] | ~3 µM | -16% | inactive at 10 | 1000 to 3000 nM | – | – | – | – |
| CCOC(=O)C(C)(C)Oc1cccc(CCCCNc2nn(CCC#N)c(=O)n(CCCC(F)(F)F)c2=O)c1 [Example 81, Ethyl 2-(3-{4-[2-(2-cyano-ethyl)-3,5-dioxo-4-(4,4,4-trifluoro-butyl)-2,3,4,5-tetrahydro-[1,2,4]triazin-6-ylamino]-butyl}-phenoxy)-2-methyl-propionate] | > 10 µM | -12% | – | 300 to 1000 nM | – | – | -17% | – |
| CCOC(=O)C(C)(C)Oc1ccc(CCCCOc2nn(C)c(=O)n(CCCC(F)(F)F)c2=O)cc1 [Example 30, Ethyl 2-methyl-2-(4-{4-[2-methyl-3,5-dioxo-4-(4,4,4-trifluoro-butyl)-2,3,4,5-tetrahydro-[1,2,4]triazin-6-yloxy]-butyl}-phenoxy)-propionate] | > 10 µM | – | – | 30 to 100 nM | – | – | – | – |
| Cn1c(=O)c(NCCc2ccc(SC(C)(C)C(=O)O)cc2)nn(CCCC(F)(F)F)c1=O [Example 118, 2-Methyl-2-(4-{2-[4-methyl-3,5-dioxo-2-(4,4,4-trifluoro-butyl)-2,3,4,5-tetrahydro-[1,2,4]triazin-6-ylamino]-ethyl}-phenylsulfanyl)-propionic Acid] | ~10 µM | – | – | 1000 to 3000 nM | – | – | – | – |
| CCCCCCCn1nc(OCCCOc2cccc(SC(C)(C)C(=O)OCC)c2)c(=O)n(C)c1=O [Example 34, Ethyl 2-{3-[3-(2-heptyl-4-methyl-3,5-dioxo-2,3,4,5-tetrahydro-[1,2,4]triazin-6-yloxy)-propoxy]-phenylsulfanyl}-2-methyl-propionate] | > 10 µM | – | – | > 10000 nM | – | – | – | – |
| CCCCCCCn1nc(NCCCc2cccc(OC(C)(C)C(=O)OCC)c2)c(=O)n(CCCCCCC)c1=O [Example 69, Ethyl 2-{3-[3-(2,4-diheptyl-3,5-dioxo-2,3,4,5-tetrahydro-[1,2,4]triazin-6-ylamino)-propyl]-phenoxy}-2-methyl-propionate] | ~10 µM | – | – | 1000 to 3000 nM | – | – | – | – |
| CCOC(=O)C(C)(C)Oc1cccc(CCCCCOc2nn(CCCC(F)(F)F)c(=O)n(C)c2=O)c1 [Example 9, Ethyl 2-methyl-2-(3-{5-[4-methyl-3,5-dioxo-2-(4,4,4-trifluoro-butyl)-2,3,4,5-tetrahydro-[1,2,4]triazin-6-yloxy]-pentyl}-phenoxy)-propionate] | ~10 µM | – | – | 3000 to 10000 nM | – | – | – | – |
